The source of these data is US20040092591A1, “Therapeutic use of fused bicyclic or tricyclic amino acids” (priority 2002, published 2004).

In this assay the target is T1, α2δ subunit derived from porcine brain tissue (Sus scrofa, UniProt A0A287BIN3).
T1 construct: the α2δ subunit derived from porcine brain tissue; from tissue; host or cells: porcine brain
In words: radioligand binding assay using [3H]gabapentin and the α2δ subunit. As to conditions: [3H]gabapentin radioligand. From the text: The biological activity of the compounds of the invention may be measured in a radioligand binding assay using [^3H]gabapentin and the α2δ subunit derived from porcine brain tissue (Gee N. S., Brown J. P., Dissanayake V. U. K., Offord J., Thurlow R., Woodruff G. N., […] J. Biol. Chem., 1996;271:5879-[…]). Results may be expressed in terms of μM or nM α2δ binding affinity.

T1 sequence (A0A287BIN3 entry or part of it): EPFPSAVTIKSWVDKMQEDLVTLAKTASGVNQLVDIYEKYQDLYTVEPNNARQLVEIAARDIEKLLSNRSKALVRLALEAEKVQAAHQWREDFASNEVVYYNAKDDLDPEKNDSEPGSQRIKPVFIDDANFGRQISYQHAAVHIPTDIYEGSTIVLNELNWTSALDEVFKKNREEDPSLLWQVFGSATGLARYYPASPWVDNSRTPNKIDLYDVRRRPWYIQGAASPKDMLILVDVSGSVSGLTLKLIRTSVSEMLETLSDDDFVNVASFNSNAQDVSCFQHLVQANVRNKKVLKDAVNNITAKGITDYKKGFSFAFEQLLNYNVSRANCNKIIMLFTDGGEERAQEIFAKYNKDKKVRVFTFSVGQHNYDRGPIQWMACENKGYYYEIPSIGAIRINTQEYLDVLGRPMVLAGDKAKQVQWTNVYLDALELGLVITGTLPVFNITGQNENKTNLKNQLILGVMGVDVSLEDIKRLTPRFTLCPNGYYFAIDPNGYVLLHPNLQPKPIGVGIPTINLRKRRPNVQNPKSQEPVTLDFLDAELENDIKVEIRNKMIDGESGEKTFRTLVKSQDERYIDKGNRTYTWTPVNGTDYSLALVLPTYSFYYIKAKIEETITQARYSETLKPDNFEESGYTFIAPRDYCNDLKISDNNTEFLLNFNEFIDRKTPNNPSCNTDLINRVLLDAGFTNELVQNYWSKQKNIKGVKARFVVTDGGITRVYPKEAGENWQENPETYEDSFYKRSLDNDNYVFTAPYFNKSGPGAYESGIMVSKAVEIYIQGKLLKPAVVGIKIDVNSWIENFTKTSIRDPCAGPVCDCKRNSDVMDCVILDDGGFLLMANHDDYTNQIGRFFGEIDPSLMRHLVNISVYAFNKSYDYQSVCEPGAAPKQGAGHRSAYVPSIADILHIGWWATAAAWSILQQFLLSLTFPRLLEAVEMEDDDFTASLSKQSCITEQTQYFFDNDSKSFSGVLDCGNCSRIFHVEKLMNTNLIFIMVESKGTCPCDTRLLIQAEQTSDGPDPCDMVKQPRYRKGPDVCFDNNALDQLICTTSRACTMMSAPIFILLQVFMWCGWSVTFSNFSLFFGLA

`Cl.NC[C@]1(CC(=O)O)C[C@H]2CCCC[C@H]21` (racemic) [Example 4, [(1RS,6RS,7SR)-7-(Aminomethyl)bicyclo[4.2.]oct-7-yl]acetic acid hydrochloride]: the α2δ binding affinity stood at 600 nM.
Next, `Cl.NC[C@]1(CC(=O)O)C[C@H]2CCC[C@H]21` [Example 1, [(1R,5R,6S)-6-(Aminomethyl)bicycl[3.2.0]hept-6-yl]acetic acid hydrochloride]: 46.8 nM.
